Measurements published in ChEMBL document CHEMBL1139550, “1-Acyl-1H-[1,2,4]triazole-3,5-diamine analogues as novel and potent anticancer cyclin-dependent kinase inhibitors: synthesis and evaluation of biological activities” (J Med Chem, 2005).
“And” between values parts separate entries of the source, which are not always exact repeats. Identical values can stand only once. Blank lines part the entries; values can stand above or below the molecule they belong to.

Legend:
[1] = target: Cyclin-dependent kinase 1/cyclin B (Homo sapiens, UniProt P06493); experiment: Inhibition of Cyclin B-cyclin-dependent kinase 1; type: protein-complex assay
[2] = tested on: PC-3; experiment: In vitro inhibitory concentration against cell proliferation in human PC-3 (prostate adenocarcinoma) tumor cells; type: functional, cell-based
[3] = tested on: HCT-116; experiment: In vitro inhibitory concentration against cell proliferation in human HCT116 (colon carcinoma) tumor cells; type: functional, cell-based
[4] = tested on: HeLa; experiment: In vitro inhibitory concentration against cell proliferation in human HeLa (cervical adenocarcinoma) tumor cells; type: functional, cell-based
[5] = tested on: MDA-MB-231; experiment: In vitro inhibitory concentration against cell proliferation in human MDA-MB-231 (breast carcinoma) tumor cells; type: functional, cell-based
[6] = tested on: A-375; experiment: In vitro inhibitory concentration against cell proliferation in human A375 (malignant melanoma),tumor cells; type: functional, cell-based
[7] = tested on: MDA-MB-231; experiment: In vitro inhibitory concentration against cell proliferation in various human MDA-MB-231 (breast carcinoma) tumor cells; type: functional, cell-based
[8] = tested on: SK-OV-3; experiment: In vitro inhibitory concentration against cell proliferation in human SK-OV-3 (ovarian adenocarcinoma) tumor cells; type: functional, cell-based
[9] = Inhibition of Platelet-derived growth factor receptor beta
[10] = target: Casein kinase II (Homo sapiens, UniProt P19784+P67870+P68400); experiment: Inhibition of Casein kinase-2; type: protein-complex assay
[11] = tested on: A-375; experiment: In vitro inhibitory concentration against cell proliferation in human A375 (malignant melanoma) tumor cells; type: functional, cell-based
[12] = target: Glycogen synthase kinase-3 (Homo sapiens, UniProt P49840+P49841); experiment: Inhibition of Glycogen synthase kinase-3; type: protein assay
[13] = Inhibition of Protein kinase-C alpha/gamma
[14] = target: Fibroblast growth factor receptor 2 (Homo sapiens, UniProt P21802); experiment: Inhibition of Fibroblast growth factor receptor 2
[15] = target: Cyclin-dependent kinase 2/cyclin A (Homo sapiens, UniProt P24941); experiment: Inhibition of Cyclin-dependent kinase 2-cyclin A; type: protein-complex assay
[16] = target: Protein kinase C beta type (Homo sapiens, UniProt P05771); experiment: Inhibition of Protein kinase C- beta 2
[17] = target: Cyclin-dependent kinase 4/cyclin D1 (Homo sapiens, UniProt P11802); experiment: Inhibition of Cyclin-dependent kinase 4-cyclin D1; type: protein-complex assay
[18] = Area under concentration time curve after 3 mg/kg […] in nude mice; type: ADME, organism-based; parameters: dose 3 mg/kg; settings: mouse, in vivo
[19] = Half life after oral administration of 30 mg/kg; type: ADME, organism-based; parameters: dose 30 mg/kg, route oral; settings: rat, in vivo
[20] = Maximum plasma concentration after oral administration of 30 mg/kg in nude mice; type: ADME, organism-based; parameters: dose 30 mg/kg, route oral; settings: mouse
[21] = target: Mitogen-activated protein kinase; ERK1/ERK2 (Homo sapiens, UniProt P27361+P28482); experiment: Inhibition of Mitogen-activated protein kinase 1; type: protein assay
[22] = Inhibition of Protein kinase A
[23] = Half life after intravenous administration of 3 mg/kg; type: ADME, organism-based; parameters: dose 3 mg/kg, route intravenous; settings: rat, in vivo
[24] = Bioavailability in mouse (nude) (dose 30 mg/kg p.o.); type: ADME, organism-based; settings: in vivo, po
[25] = target: CaM kinase II (Homo sapiens, UniProt Q13557+Q13555+Q13554+Q9UQM7); experiment: Inhibition of [Ca(2+)]/calmodulin dependent kinase; type: protein assay
[26] = target: Vascular endothelial growth factor receptor 2 (Homo sapiens, UniProt P35968); experiment: Inhibition of Vascular endothelial growth factor receptor 2
[27] = Area under concentration time curve after 30 mg/kg of oral dose in nude mice; type: ADME, organism-based; parameters: dose 30 mg/kg, route oral; settings: mouse, in vivo
[28] = Maximum plasma concentration after intravenous administration of 3 mg/kg in nude mice; type: ADME, organism-based; parameters: dose 3 mg/kg, route intravenous; settings: mouse
[29] = target: Casein kinase I; experiment: Inhibition of human casein kinase-1; type: protein assay
[30] = tested on: HeLa; experiment: In vitro inhibitory concentration against cell proliferation in s human HeLa (cervical adenocarcinoma),tumor cells; type: functional, cell-based
[31] = Maximum plasma concentration after oral administration of 30 mg/kg in rat; type: ADME, organism-based; parameters: dose 30 mg/kg, route oral
[32] = Half life after intravenous administration of 1 mg/kg; type: ADME, organism-based, Canis lupus familiaris; parameters: dose 1 mg/kg, route intravenous; settings: dog, in vivo
[33] = Bioavailability in rat after 30 mg/kg oral dose; type: ADME, organism-based; settings: in vivo, read-out: Bioavailabiility
[34] = Area under concentration time curve after 30 mg/kg of oral dose in rat; type: ADME, organism-based; parameters: dose 30 mg/kg, route oral; settings: in vivo
[35] = Maximum plasma concentration after oral administration of 10 mg/kg in dog; type: ADME, organism-based, Canis lupus familiaris; parameters: dose 10 mg/kg, route oral
[36] = Maximum plasma concentration after intravenous administration of 3 mg/kg in rat; type: ADME, organism-based; parameters: dose 3 mg/kg, route intravenous
[37] = Bioavailability in dog after 10 mg/kg oral dose; type: ADME, organism-based, Canis lupus familiaris; settings: in vivo, read-out: Bioavailabiility
[38] = Area under concentration time curve after 3 mg/kg […] in rat; type: ADME, organism-based; parameters: dose 3 mg/kg; settings: in vivo
[39] = Maximum plasma concentration after intravenous administration of 1 mg/kg in dog; type: ADME, organism-based, Canis lupus familiaris; parameters: dose 1 mg/kg, route intravenous
[40] = tested on: Mus musculus; experiment: Mean day of survival after intraperitoneal administration of 100 mg/kg in mice; type: functional
[41] = Half life after oral administration of 10 mg/kg; type: ADME, organism-based, Canis lupus familiaris; parameters: dose 10 mg/kg, route oral; settings: dog, in vivo
[42] = tested on: Mus musculus; experiment: Mean day of survival after intraperitoneal administration of 75 mg/kg in mice; type: functional
[43] = Area under concentration time curve after 1 mg/kg of intravenous dose in dog; type: ADME, organism-based, Canis lupus familiaris; parameters: dose 1 mg/kg, route intravenous; settings: in vivo
[44] = Area under concentration time curve after 10 mg/kg of oral dose in dog; type: ADME, organism-based, Canis lupus familiaris; parameters: dose 10 mg/kg, route oral; settings: in vivo

Casein kinase II, sequence (P67870 whole entry): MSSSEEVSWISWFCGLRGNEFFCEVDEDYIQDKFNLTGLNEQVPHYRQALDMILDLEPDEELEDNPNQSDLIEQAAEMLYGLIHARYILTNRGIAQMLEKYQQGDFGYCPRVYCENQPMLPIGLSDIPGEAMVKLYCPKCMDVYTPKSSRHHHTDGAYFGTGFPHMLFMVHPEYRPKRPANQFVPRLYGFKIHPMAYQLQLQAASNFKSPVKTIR
Casein kinase II, sequence (P68400 whole entry): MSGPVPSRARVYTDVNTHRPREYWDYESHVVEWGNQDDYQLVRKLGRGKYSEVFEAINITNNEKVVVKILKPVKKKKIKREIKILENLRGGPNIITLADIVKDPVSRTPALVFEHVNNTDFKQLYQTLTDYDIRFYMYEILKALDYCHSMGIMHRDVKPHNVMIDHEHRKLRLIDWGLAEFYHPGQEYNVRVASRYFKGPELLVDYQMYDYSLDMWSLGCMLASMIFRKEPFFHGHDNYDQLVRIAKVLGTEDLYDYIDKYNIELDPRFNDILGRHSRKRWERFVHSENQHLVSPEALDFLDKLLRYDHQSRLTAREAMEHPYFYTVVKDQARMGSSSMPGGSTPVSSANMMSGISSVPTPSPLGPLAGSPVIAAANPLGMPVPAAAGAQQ
Casein kinase II, sequence (P19784 whole entry): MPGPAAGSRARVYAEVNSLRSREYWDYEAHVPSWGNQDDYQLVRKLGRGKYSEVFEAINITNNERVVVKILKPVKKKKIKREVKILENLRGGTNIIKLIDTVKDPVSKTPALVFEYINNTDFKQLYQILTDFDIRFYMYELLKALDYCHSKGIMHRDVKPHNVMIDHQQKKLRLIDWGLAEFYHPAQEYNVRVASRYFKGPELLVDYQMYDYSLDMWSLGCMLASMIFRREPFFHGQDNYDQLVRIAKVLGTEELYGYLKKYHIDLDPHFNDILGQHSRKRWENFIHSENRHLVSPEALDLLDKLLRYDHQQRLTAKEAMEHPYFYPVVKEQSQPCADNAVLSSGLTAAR
Fibroblast growth factor receptor 2, sequence (P21802 whole entry): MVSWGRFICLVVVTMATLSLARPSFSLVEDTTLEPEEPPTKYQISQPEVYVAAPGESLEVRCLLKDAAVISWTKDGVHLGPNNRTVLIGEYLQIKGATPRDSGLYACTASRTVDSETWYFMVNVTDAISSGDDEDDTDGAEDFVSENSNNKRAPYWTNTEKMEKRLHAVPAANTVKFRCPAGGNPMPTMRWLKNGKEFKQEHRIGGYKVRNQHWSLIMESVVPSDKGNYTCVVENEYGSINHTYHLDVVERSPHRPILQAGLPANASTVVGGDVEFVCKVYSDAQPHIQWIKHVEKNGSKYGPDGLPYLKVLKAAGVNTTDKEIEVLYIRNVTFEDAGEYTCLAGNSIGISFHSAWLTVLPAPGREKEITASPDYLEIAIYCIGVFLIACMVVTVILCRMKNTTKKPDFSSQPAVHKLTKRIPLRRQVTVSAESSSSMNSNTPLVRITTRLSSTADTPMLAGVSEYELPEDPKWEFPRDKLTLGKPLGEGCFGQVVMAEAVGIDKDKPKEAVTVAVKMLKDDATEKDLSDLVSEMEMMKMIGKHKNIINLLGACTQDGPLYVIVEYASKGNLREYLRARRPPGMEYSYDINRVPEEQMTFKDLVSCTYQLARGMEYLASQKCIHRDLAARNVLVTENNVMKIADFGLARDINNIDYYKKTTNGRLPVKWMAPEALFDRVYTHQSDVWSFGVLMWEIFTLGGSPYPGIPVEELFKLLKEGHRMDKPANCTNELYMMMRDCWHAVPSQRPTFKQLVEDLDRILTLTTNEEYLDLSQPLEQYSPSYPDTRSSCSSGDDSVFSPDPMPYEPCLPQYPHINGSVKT
Protein kinase C beta type, sequence (P05771 whole entry): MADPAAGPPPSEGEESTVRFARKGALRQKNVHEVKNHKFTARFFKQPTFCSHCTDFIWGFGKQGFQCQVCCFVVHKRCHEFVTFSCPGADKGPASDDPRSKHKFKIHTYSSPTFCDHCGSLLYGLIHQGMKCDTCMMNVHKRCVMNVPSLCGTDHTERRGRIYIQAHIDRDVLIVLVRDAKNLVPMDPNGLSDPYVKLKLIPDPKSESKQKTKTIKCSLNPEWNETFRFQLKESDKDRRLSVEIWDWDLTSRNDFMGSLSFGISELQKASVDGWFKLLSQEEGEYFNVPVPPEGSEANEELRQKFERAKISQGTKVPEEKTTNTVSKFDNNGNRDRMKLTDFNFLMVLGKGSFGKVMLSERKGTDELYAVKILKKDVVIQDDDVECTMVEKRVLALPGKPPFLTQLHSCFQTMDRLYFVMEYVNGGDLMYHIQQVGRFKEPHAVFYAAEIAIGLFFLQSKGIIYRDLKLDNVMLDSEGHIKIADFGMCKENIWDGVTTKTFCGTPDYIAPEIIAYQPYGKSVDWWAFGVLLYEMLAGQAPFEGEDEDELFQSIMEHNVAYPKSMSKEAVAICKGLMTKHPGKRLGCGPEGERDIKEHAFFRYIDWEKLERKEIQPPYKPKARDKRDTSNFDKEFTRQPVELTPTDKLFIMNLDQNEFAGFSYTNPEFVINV
Cyclin-dependent kinase 4/cyclin D1, sequence (P11802 whole entry): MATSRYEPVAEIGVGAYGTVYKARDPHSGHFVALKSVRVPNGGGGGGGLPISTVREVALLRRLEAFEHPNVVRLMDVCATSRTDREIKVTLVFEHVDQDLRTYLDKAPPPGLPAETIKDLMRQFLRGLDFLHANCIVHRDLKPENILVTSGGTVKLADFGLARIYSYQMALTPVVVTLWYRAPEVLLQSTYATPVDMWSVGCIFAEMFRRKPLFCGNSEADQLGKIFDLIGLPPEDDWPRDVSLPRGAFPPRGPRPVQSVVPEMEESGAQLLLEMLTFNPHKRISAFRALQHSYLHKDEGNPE
Cyclin-dependent kinase 4/cyclin D1, sequence (P24385 whole entry, further chain): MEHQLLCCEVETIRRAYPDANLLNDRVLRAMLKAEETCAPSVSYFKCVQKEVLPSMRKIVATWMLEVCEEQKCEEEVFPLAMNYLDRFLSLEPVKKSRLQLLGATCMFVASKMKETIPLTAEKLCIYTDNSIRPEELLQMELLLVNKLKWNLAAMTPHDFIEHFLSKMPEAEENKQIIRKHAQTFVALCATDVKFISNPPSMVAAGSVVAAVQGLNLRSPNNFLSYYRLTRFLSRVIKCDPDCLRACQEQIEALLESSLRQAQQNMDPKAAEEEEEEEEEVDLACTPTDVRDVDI
Vascular endothelial growth factor receptor 2, sequence (P35968 whole entry): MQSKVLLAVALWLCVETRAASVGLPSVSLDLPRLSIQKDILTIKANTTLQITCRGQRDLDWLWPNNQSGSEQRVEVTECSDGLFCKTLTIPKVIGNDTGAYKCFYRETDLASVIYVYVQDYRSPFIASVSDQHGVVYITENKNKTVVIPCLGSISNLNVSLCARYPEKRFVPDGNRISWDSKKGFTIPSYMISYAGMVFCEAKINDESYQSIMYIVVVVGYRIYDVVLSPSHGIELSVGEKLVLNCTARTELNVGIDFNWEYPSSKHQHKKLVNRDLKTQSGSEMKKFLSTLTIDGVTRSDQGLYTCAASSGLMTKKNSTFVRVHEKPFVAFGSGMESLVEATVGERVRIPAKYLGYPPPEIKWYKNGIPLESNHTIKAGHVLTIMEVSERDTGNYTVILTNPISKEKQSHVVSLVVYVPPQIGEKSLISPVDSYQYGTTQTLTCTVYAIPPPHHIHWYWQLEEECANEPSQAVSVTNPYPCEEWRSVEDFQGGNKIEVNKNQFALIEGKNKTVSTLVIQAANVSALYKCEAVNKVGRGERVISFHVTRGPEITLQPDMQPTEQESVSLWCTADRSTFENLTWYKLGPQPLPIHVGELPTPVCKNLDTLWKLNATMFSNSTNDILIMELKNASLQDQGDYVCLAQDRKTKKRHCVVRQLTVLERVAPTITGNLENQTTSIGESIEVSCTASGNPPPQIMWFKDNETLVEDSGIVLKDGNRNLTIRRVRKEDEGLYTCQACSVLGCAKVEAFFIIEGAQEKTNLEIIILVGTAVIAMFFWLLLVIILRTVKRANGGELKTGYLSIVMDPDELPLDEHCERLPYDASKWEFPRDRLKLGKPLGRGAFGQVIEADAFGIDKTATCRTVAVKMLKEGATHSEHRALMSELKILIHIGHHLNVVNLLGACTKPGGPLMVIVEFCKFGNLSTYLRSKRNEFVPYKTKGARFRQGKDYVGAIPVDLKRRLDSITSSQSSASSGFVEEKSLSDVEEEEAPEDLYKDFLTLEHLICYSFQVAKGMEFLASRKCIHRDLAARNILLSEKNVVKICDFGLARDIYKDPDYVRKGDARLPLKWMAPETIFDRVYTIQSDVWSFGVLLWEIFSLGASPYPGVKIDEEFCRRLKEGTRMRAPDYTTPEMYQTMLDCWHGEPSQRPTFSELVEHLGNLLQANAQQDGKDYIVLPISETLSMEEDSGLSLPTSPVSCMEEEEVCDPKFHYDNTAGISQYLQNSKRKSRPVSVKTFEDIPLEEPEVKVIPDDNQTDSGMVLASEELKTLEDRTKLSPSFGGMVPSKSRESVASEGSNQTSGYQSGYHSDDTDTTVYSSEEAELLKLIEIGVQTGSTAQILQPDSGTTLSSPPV

SMILES: Nc1nc(Nc2ccc(S(N)(=O)=O)cc2)nn1Cc1c(F)cccc1F
IC50 [1]: > 100000 nM

SMILES: Cc1cc(C)c(C(=O)n2nc(Nc3ccc(S(N)(=O)=O)cc3)nc2N)s1
IC50 [2]: 37 nM
IC50 [3]: 270 nM
IC50 [4]: 72 nM
IC50 [5]: 170 nM

SMILES: Nc1nc(Nc2ccc(S(N)(=O)=O)cc2)nn1C(=O)c1cccs1
IC50 [2]: 160 nM
IC50 [3]: 1900 nM
IC50 [4]: 550 nM
IC50 [6]: 2600 nM
IC50 [7]: 760 nM
IC50 [8]: 730 nM

SMILES: Nc1nc(Nc2ccc(S(N)(=O)=O)cc2)nn1C(=S)Nc1c(F)cccc1F
IC50 [3]: 20 nM
IC50 [4]: 35 nM
IC50 [9]: 1600 nM
IC50 [6]: 92 nM
IC50 [10]: > 100000 nM

SMILES: Nc1nc(Nc2ccc(S(N)(=O)=O)cc2)nn1C(=O)c1sccc1F
IC50 [2]: 370 nM
IC50 [3]: 210 nM
IC50 [4]: 260 nM
IC50 [11]: 940 nM
IC50 [8]: 2100 nM

SMILES: Cc1ccsc1C(=O)n1nc(Nc2ccc(S(N)(=O)=O)cc2)nc1N
IC50 [2]: 110 nM
IC50 [3]: 130 nM
IC50 [12]: 26 nM
IC50 [4]: 91 nM
IC50 [9]: 310 nM
IC50 [6]: 250 nM
IC50 [13]: > 100000 nM
IC50 [14]: 180 nM
IC50 [15]: 0.4 nM
IC50 [10]: > 100000 nM
IC50 [16]: > 100000 nM
IC50 [17]: 120 nM

SMILES: Cc1ccc(F)c(C(=O)n2nc(Nc3ccc(S(N)(=O)=O)cc3)nc2C)c1F
AUC [18]: 0.27 µM·h
IC50 [2]: 160 nM
IC50 [3]: 880 nM
IC50 [12]: 31 nM
half-life [19]: 2.29 h
IC50 [4]: 370 nM
IC50 [9]: 10700 nM
Cmax [20]: 430 nM
IC50 [21]: 9500 nM
IC50 [1]: 8 nM and 3 nM
IC50 [22]: > 100000 nM
half-life [23]: 1.94 h
bioavailability [24]: 20.6%
IC50 [25]: > 100000 nM
IC50 [13]: > 100000 nM
IC50 [26]: 510 nM
AUC [27]: 0.55 µM·h
IC50 [14]: 270 nM
IC50 [15]: 0.3 nM
IC50 [10]: > 100000 nM
IC50 [16]: > 100000 nM
Cmax [28]: 330 nM
IC50 [17]: 190 nM
IC50 [8]: 220 nM
IC50 [29]: > 100000 nM

SMILES: Nc1nc(Nc2ccc(S(N)(=O)=O)cc2)nn1C(=O)Nc1c(F)cccc1F
IC50 [3]: 4700 nM
IC50 [6]: 48300 nM
IC50 [30]: 3730 nM

SMILES: Nc1nc(Nc2ccc(S(N)(=O)=O)cc2)nn1C(=O)c1c(F)cccc1F [JNJ-7706621]
Cmax [31]: 2500 nM
AUC [18]: 3.2 µM·h
IC50 [2]: 120 nM
T1/2 [19]: 2.2 h and 1.7 h
half-life [32]: 3.89 h
bioavailability [33]: 8%
Cmax [20]: 210 nM
AUC [34]: 9.5 µM·h
IC50 [22]: > 100000 nM
T1/2 [23]: 0.64 h
half-life [23]: 0.51 h
bioavailability [24]: 2%
Cmax [35]: 4580 nM
IC50 [7]: 590 nM
Cmax [36]: 23200 nM
bioavailability [37]: 63.3%
IC50 [13]: 30100 nM
AUC [27]: 0.74 µM·h
IC50 [14]: 220 nM
AUC [38]: 11.4 µM·h
IC50 [16]: > 100000 nM
Cmax [39]: 2190 nM
Mean day survival [40]: 50.1 days
Cmax [28]: 6400 nM
half-life [41]: 2.36 h
IC50 [8]: 750 nM
Mean day survival [42]: 48.5 days
AUC [43]: 2.45 µM·h
AUC [44]: 15.5 µM·h

Results, then the molecule that gave them:

IC50 [1]: 660 nM
SMILES: N[n+]1nc(Nc2ccc(S(N)(=O)=O)cc2)nn1S(=O)(=O)c1c(F)cccc1F

IC50 [3]: 4100 nM
IC50 [4]: 28500 nM
IC50 [1]: 2100 nM
IC50 [6]: > 10000 nM
SMILES: Cc1ccc(F)c(C(=O)n2nc(N)nc2Nc2ccc(S(N)(=O)=O)cc2)c1F

IC50 [4]: 140 nM
IC50 [1]: 130 nM
SMILES: CN(C)CCNS(=O)(=O)c1ccc(Nc2nc(N)n(C(=O)c3c(F)cccc3F)n2)cc1

IC50 [3]: 910 nM
IC50 [4]: 130 nM
IC50 [6]: 970 nM
SMILES: Nc1nc(Nc2ccc(S(N)(=O)=O)cc2)n(C(=S)c2c(F)cccc2F)n1

IC50 [4]: 220 nM
IC50 [1]: 3.2 nM
IC50 [8]: 1600 nM
SMILES: Cc1nc(Nc2ccc(S(N)(=O)=O)cc2)nn1C(=O)c1c(F)ccc(F)c1F
